The values below come from US11377442B2, “Small molecule agonists and antagonists of NR2F6 activity” (ZANDER THERAPEUTICS, INC., priority 2016, dated 2022).

SMILES strings stand for the structures.

In the test the target is T1, NR2F6 (Homo sapiens, UniProt P10588).
T1 construct: expressed in transfected cells; also transient transfection
T1 sequence (P10588 1-404): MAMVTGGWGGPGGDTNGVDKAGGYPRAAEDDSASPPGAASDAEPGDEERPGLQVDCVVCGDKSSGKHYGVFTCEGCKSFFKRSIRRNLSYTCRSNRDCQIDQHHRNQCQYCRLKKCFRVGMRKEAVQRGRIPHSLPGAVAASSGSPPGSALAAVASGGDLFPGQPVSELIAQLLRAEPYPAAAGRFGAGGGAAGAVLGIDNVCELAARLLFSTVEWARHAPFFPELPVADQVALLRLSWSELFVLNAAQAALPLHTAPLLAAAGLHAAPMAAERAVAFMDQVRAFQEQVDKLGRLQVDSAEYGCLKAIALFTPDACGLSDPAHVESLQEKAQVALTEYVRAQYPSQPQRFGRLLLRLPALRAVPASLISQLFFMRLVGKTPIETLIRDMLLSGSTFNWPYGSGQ
Put plainly: NR2F6 agonist screening, Firefly signal cmpd/DMSO. It counts as cell-based. On the set-up: Firefly NR2F6 full length, cmpd/DMSO (mean) / Firefly F4, cmpd/DMSO (mean): unit of the concentration uncertain. The note with it: for Firefly/Renilla (NR2F6 stable, clone F4): ratio Firefly/Renilla; for Firefly, NR2F6 stable (clone F4)/pGL4: ratio of Firefly in NR2F6 stable clone F4 to pGL4; for Firefly, cmpd/DMSO (mean): mean of repeats; for Firefly, cmpd repeat 1 / Firefly, cmpd repeat 2: raw signal.

[1] abbreviates: C11 analogs follow set (Tables 2-10).
The mark [2] stands for this setting: Concentration 2 (unit uncertain).
Setting [3] is: Concentration 10 (unit uncertain).
Where [4] appears, read: Concentration 40 (unit uncertain).

Consider `COc1ccc2cc(S(=O)(=O)c3ccccc3F)c(=O)oc2c1` [Compound C280], for which, under setting [1], the “Firefly, cmpd/DMSO repeat 1” value worked out at 0.6 and the “Firefly, cmpd/DMSO repeat 2” value worked out at 0.6.

Regarding `COc1ccc2cc(S(=O)(=O)c3cccc(Cl)c3)c(=O)oc2c1` [Compound C281], under setting [1], the “Firefly, cmpd/DMSO repeat 1” value was 3.0 and the “Firefly, cmpd/DMSO repeat 2” value amounted to 4.4.

`COc1ccc2cc(S(=O)(=O)c3ccc(F)c(C)c3)c(=O)oc2c1` [Compound C282]: under setting [1], the “Firefly, cmpd/DMSO repeat 1” value was 0.7 and the “Firefly, cmpd/DMSO repeat 2” value was 1.1.

Turning to `COc1ccc(S(=O)(=O)c2cc3cc(Br)cc(Br)c3oc2=O)cc1` [Compound C283], for the setting “Table 11”, the “Firefly, cmpd/DMSO repeat 1” value is on record as 1.0 and the “Firefly, cmpd/DMSO repeat 2” value was 1.3.

For `CC(C)c1ccc(S(=O)(=O)c2cc3cc(Br)cc(Br)c3oc2=O)cc1` [Compound C284], under “Table 11”, the “Firefly, cmpd/DMSO repeat 1” value amounted to 2.9 and the “Firefly, cmpd/DMSO repeat 2” value turned out to be 2.5.

Turning to `Cc1ccc(S(=O)(=O)c2cc3cc(Br)cc(Br)c3oc2=O)cc1C` [Compound C285], under “Table 11”, the “Firefly, cmpd/DMSO repeat 1” value is given as 1.0 and the “Firefly, cmpd/DMSO repeat 2” value came out at 1.0.

`O=c1oc2c(Br)cc(Br)cc2cc1S(=O)(=O)c1ccc(Cl)cc1` [Compound C286]: under “Table 11”, the “Firefly, cmpd/DMSO repeat 1” value is recorded as 2.3 and the “Firefly, cmpd/DMSO repeat 2” value is given as 2.4.

In the case of `O=c1oc2c(Br)cc(Br)cc2cc1S(=O)(=O)c1ccc(Cl)c(Cl)c1` [Compound C287], where the note is “Table 11”, the “Firefly, cmpd/DMSO repeat 1” value is 3.0 and the “Firefly, cmpd/DMSO repeat 2” value turned out to be 2.6.

`O=c1oc2c(F)cc(F)cc2cc1S(=O)(=O)c1ccccc1` [Compound C288]: where the note is “Table 11”, the “Firefly, cmpd/DMSO repeat 1” value is recorded as 6.8 and the “Firefly, cmpd/DMSO repeat 2” value turned out to be 3.3.

On to `COc1ccc(S(=O)(=O)c2cc3cc(F)cc(F)c3oc2=O)cc1` [Compound C289], for which, where the note is “Table 11”, the “Firefly, cmpd/DMSO repeat 1” value is on record as 31.3 and the “Firefly, cmpd/DMSO repeat 2” value is given as 15.6. Under “Table 12”, the “Firefly/Renilla (NR2F6 stable, clone F4)” value is recorded as 2.0; the “Firefly, NR2F6 stable (clone F4)/pGL4” value stood at 15.3; the “Firefly, cmpd/DMSO repeat 1” value is 31.3; the “Firefly, cmpd/DMSO repeat 2” value was determined as 15.6.

On to `O=c1oc2c(F)cc(F)cc2cc1S(=O)(=O)c1ccc(Br)cc1` [Compound C290], for which, under “Table 11”, the “Firefly, cmpd/DMSO repeat 1” value is on record as 13.8 and the “Firefly, cmpd/DMSO repeat 2” value was determined as 14.6.

Turning to `CC(C)(C)c1ccc(S(=O)(=O)c2cc3cc(F)cc(F)c3oc2=O)cc1` [Compound C291], where the note is “Table 11”, the “Firefly, cmpd/DMSO repeat 1” value turned out to be 0.9 and the “Firefly, cmpd/DMSO repeat 2” value stood at 0.8.

`Cc1cc(S(=O)(=O)c2cc3cc(F)cc(F)c3oc2=O)ccc1F` [Compound C292]: under “Table 11”, the “Firefly, cmpd/DMSO repeat 1” value is listed as 18.3 and the “Firefly, cmpd/DMSO repeat 2” value was determined as 14.8. Moreover, under “Table 13”, the “Firefly/Renilla (NR2F6 stable, clone F4)” value turned out to be 1.1; the “Firefly, NR2F6 stable (clone F4)/pGL4” value came to 9.7; the “Firefly, cmpd/DMSO repeat 1” value is listed as 18.3; the “Firefly, cmpd/DMSO repeat 2” value is given as 14.8.

For the compound `O=c1oc2c(F)cc(F)cc2cc1S(=O)(=O)c1ccc(Cl)cc1` [Compound C293], under “Table 11”, the “Firefly, cmpd/DMSO repeat 1” value worked out at 8.5 and the “Firefly, cmpd/DMSO repeat 2” value was 11.9.

`COc1cc(Br)cc2cc(S(=O)(=O)c3ccccc3)c(=O)oc12` [Compound C294]: where the note is “Table 11”, the “Firefly, cmpd/DMSO repeat 1” value stood at 16.5 and the “Firefly, cmpd/DMSO repeat 2” value is 16.5.

In the case of `COc1cc(Br)cc2cc(S(=O)(=O)c3ccc(F)cc3)c(=O)oc12` [Compound C295], where the note is “Table 11”, the “Firefly, cmpd/DMSO repeat 1” value is listed as 4.0 and the “Firefly, cmpd/DMSO repeat 2” value came to 4.6.

Take `COc1ccc(S(=O)(=O)c2cc3cc(Br)cc(OC)c3oc2=O)cc1` [Compound C296]: for the setting “Table 11”, the “Firefly, cmpd/DMSO repeat 1” value is reported as 6.0 and the “Firefly, cmpd/DMSO repeat 2” value is reported as 7.8.

As for `COc1cc(Br)cc2cc(S(=O)(=O)c3ccc(C(C)(C)C)cc3)c(=O)oc12` [Compound C297], for the setting “Table 11”, the “Firefly, cmpd/DMSO repeat 1” value is 1.5 and the “Firefly, cmpd/DMSO repeat 2” value is given as 2.6.

Turning to `COc1cc(Br)cc2cc(S(=O)(=O)c3ccc(F)c(C)c3)c(=O)oc12` [Compound C298], where the note is “Table 11”, the “Firefly, cmpd/DMSO repeat 1” value came out at 2.2 and the “Firefly, cmpd/DMSO repeat 2” value was 3.2.

On to `Cc1ccc2oc(=O)c(S(=O)(=O)c3cccc(C#N)c3)cc2c1` [Compound C299], for which, for the setting “Table 12”, the “Firefly/Renilla (NR2F6 stable, clone F4)” value came out at 4.0; the “Firefly, NR2F6 stable (clone F4)/pGL4” value was 10.1; the “Firefly, cmpd/DMSO repeat 1” value came out at 21.5; the “Firefly, cmpd/DMSO repeat 2” value came to 15.2.

On to `Cc1ccc2oc(=O)c(S(=O)(=O)c3cccc(Cl)c3)cc2c1` [Compound C300], for which, under “Table 13”, the “Firefly/Renilla (NR2F6 stable, clone F4)” value was determined as 1.6; the “Firefly, NR2F6 stable (clone F4)/pGL4” value is recorded as 4.3; the “Firefly, cmpd/DMSO repeat 1” value amounted to 9.8; the “Firefly, cmpd/DMSO repeat 2” value came out at 7.4.

With `CCOC(=O)c1cnc2c(C)cc(C)cc2c1NCCCN(C)C` [Compound D28], the “Firefly, cmpd/DMSO (mean)” value was determined as 12.8; the “Firefly, cmpd repeat 1” value amounted to 784; the “Firefly, cmpd repeat 2” value is given as 644; the “Firefly, cmpd/DMSO repeat 1” value was 14.1. Moreover, the “Firefly, cmpd/DMSO repeat 2” value is given as 11.7.

On to `COc1ccc(OC)c(S(=O)(=O)NCc2nc3nc(C)cc(C)n3n2)c1` [Compound E4], for which the “Firefly F4, cmpd/DMSO (mean)” value is, setting by setting: under setting [2], 0.9; under setting [3], 0.9; under setting [4], 0.8. In addition, the “Firefly NR2F6 full length, cmpd/DMSO (mean)” value under setting [2] amounted to 1.1; the “Firefly NR2F6 full length, cmpd/DMSO (mean)” value under setting [3] turned out to be 1.0; the “Firefly NR2F6 full length, cmpd/DMSO (mean)” value under setting [4] was found to be 1.0.

As for `COc1ccc(S(=O)(=O)NCc2nc3nc(C)cc(C)n3n2)cc1OC` [Compound E8], the “Firefly F4, cmpd/DMSO (mean)” value is reported as 1.0 under setting [2], 1.0 under setting [3] and 0.7 under setting [4]. For the same compound, the “Firefly NR2F6 full length, cmpd/DMSO (mean)” value is, setting by setting: under setting [2], 1.2; under setting [3], 1.2; under setting [4], 0.9.

`Cc1cc(C)c(S(=O)(=O)NCc2nc3nc(C)cc(C)n3n2)c(C)c1` [Compound E10]: the “Firefly F4, cmpd/DMSO (mean)” value was 1.1 under setting [2], 1.0 under setting [3] and 0.8 under setting [4]. Besides, the “Firefly NR2F6 full length, cmpd/DMSO (mean)” value is recorded as 1.3 under setting [2], 1.5 under setting [3] and 1.1 under setting [4].

For `COc1ccc(Cl)cc1S(=O)(=O)NCc1nc2nc(C)cc(C)n2n1` [Compound E15], the “Firefly F4, cmpd/DMSO (mean)” value under setting [2] was determined as 1.3; the “Firefly F4, cmpd/DMSO (mean)” value under setting [3] is 1.1; the “Firefly F4, cmpd/DMSO (mean)” value under setting [4] worked out at 0.8. Moreover, the “Firefly NR2F6 full length, cmpd/DMSO (mean)” value by setting is: under setting [2], 1.2; under setting [3], 0.8; under setting [4], 1.1.

For `Cc1cc(C)n2nc(CNS(=O)(=O)c3c(F)c(F)c(F)c(F)c3F)nc2n1` [Compound E21], the “Firefly, cmpd/DMSO (mean)” value was found to be 7.3; the “Firefly, cmpd repeat 1” value amounted to 526; the “Firefly, cmpd repeat 2” value is given as 306; the “Firefly, cmpd/DMSO repeat 1” value worked out at 9.5. The “Firefly, cmpd/DMSO repeat 2” value is 5.6. For the same compound, the “activity (in words)” value (screening result) was “desirable activity”.

`Cc1ccc(S(=O)(=O)NCc2cn3ccccc3n2)c(C)c1` [Compound E24]: the “Firefly F4, cmpd/DMSO (mean)” value under setting [2] was 1.0; the “Firefly F4, cmpd/DMSO (mean)” value under setting [3] is reported as 0.9; the “Firefly F4, cmpd/DMSO (mean)” value under setting [4] is listed as 0.7. Also, the “Firefly NR2F6 full length, cmpd/DMSO (mean)” value by setting is: under setting [2], 1.0; under setting [3], 1.1; under setting [4], 1.1.

Turning to `Cc1ccc(S(=O)(=O)NCc2cn3cccc(C)c3n2)cc1C` [Compound E41], the “Firefly F4, cmpd/DMSO (mean)” value is 0.9 under setting [2], 0.7 under setting [3] and 0.4 under setting [4]. Moreover, the “Firefly NR2F6 full length, cmpd/DMSO (mean)” value turned out to be 1.1 under setting [2], 1.0 under setting [3] and 0.9 under setting [4].

For `Cc1cccn2cc(CNS(=O)(=O)c3ccccc3F)nc12` [Compound E52], the “Firefly F4, cmpd/DMSO (mean)” value was 0.7 under setting [2], 0.9 under setting [3] and 0.7 under setting [4]. For the same compound, the “Firefly NR2F6 full length, cmpd/DMSO (mean)” value is 1.0 under setting [2], 1.3 under setting [3] and 1.4 under setting [4].

Regarding `Cc1ccc(S(=O)(=O)N(Cc2nc3nc(C)c(S)c(C)n3n2)c2ccccc2)cc1` [Compound E57], the “Firefly F4, cmpd/DMSO (mean)” value reads like this: under setting [2], 1.0; under setting [3], 1.3; under setting [4], 1.3. Besides, the “Firefly NR2F6 full length, cmpd/DMSO (mean)” value worked out at 1.3 under setting [2], 1.2 under setting [3] and 0.9 under setting [4].

As for `Cc1cc(C)nc(Sc2nnc(-c3ccc(C)c(S(=O)(=O)N4CCOCC4)c3)c3ccccc23)n1` [Compound F1], the “Firefly, cmpd/DMSO (mean)” value came out at 5.1; the “Firefly, cmpd repeat 1” value was determined as 310; the “Firefly, cmpd repeat 2” value worked out at 252; the “Firefly, cmpd/DMSO repeat 1” value was found to be 5.6. Further, the “Firefly, cmpd/DMSO repeat 2” value amounted to 4.6.
